Test results from patent publication US11448643B2, “Methods to specifically profile protease activity at lymph nodes” (Massachusetts Institute of Technology, priority 2016, dated 2022).
Square brackets hold non-standard residues; d marks the D form. Ends that are not written are not given here. Pip = O=C(O)[C@@H]1CCCCN1

Experiments:
[1] = tested on: homogenized lymph nodes from vaccinated mice; assay: Ex vivo peptide screen: cleavage of fluorogenic protease substrates by homogenized lymph nodes from vaccinated vs control mice; assay type: biochemical; conditions: 58 fluorogenic substrates; 384 well plates; fluorescence over several hours; FIG. 7
Procedure: Substrate cleavage of 58 peptides was measured. Signal reported is the fold difference in cleavage between vaccinated mice and PBS-injected mice.
Mice were vaccinated in the same manner as described above. Lymph nodes from vaccinated or non-vaccinated mice were harvested. The harvested lymph nodes were homogenized and added to the 58 fluorogenic protease substrates (SEQ ID NOs: 2-59) in 384 well plates. Fluorescent signal was monitored over the period of several hours for each substrate in the well plates. Fluorescence of reporter molecules in lymph nodes of vaccinated mice was compared to non-vaccinated mice (injected with PBS) and reported as the fold difference in cleavage of each substrate between vaccinated and control mice. […] The substrate used urinary monitoring experiment described above is referred to as Q7 (PLGVRGK; SEQ ID NO: 76).

[2] = tested on: metalloproteases in the LN; conditions: mice vaccinated with amph-EGP plus lipo-CpG and boosted; urine collected 3 hours after injection; ELISA; FIG. 6
Procedure: Mice were injected subcutaneously and urine for analysis was collected 3 h post-administration.
Mice were later boosted to engage both innate and adaptive immunity. Subsequently, mice were administered a LN-targeting pro-diagnostic reagent comprising a LN-specific enzyme susceptible domain (e.g., protease substrate). Cleavage of the pro-diagnostic reagent by metalloproteases in the LN results in production of signature molecules (ligand encoded tags) that are released into the urine of the subject (e.g., mouse). Urine was collected from the mice 3 hours after injection. Reporter signal was quantified by ELISA.

Question: With “GGVPRG (also: fluorogenic labels) [PQ12]” as the substance, how does the “rank of substrate cleavage (fold difference vaccinated vs control mice)” value [1] read?
Answer: The value was “two highest cleaved substrates”.

Question: How did the “rank of substrate cleavage (fold difference vaccinated vs control mice)” value [1] turn out when “f(Pip)KSGGG ([dF][Pip]KSGGG; also: fluorogenic labels) [Q10, fluorogenic protease substrate, f is D-Phe, Pip is pipecolic acid]” was run?
Answer: The value was “two highest cleaved substrates”.

Question: With “Albumin-GPLGVRGKGK(Biotin)eGvndneeGffsarK(FAM) [Albumin-B7]” as the substance, how does the “urinary reporter signal in vaccinated mice compared to PBS-injected mice” value [2] read?
Answer: Its value is “significantly increased”.
